Experiments:
S. aureus DSM 20231 [1] = assay: fitness (endpoint OD595 vs no drug) (fraction); higher = more growth
Procedure, shortened: (§1)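 Volumes were 30 µl per well, or 55 µl for S. pneumoniae, in 384-well plates inoculated at OD595 0.01. Media were TSB, LB Lennox or CY at 37 °C, and OD595 was read every 30 min for 14 h with first-reading background subtraction. Fitness is the ratio of optical density at stationary-phase entry to the robust mean of no-drug controls. That ratio is capped at 1.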

B. subtilis 168 [2] = assay: as above
Procedure, shortened: as §1

S. pneumoniae D39V [3] = assay: as above
Procedure, shortened: as §1

S. aureus Newman [4] = assay: as above
Procedure, shortened: as §1

S. aureus DSM 20231 [5] = assay: Bliss interaction score (quartile over a dose matrix) (fitness difference); higher = more antagonism (negative = synergy)
Procedure, shortened: (§2)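 At entry into stationary phase, OD595 was recorded and divided by the robust mean of the no-drug wells on that plate, with any value above 1 set to 1. This gives the fitness measure used throughout. Single-drug fitness was inferred from combination data, and the Bliss score, observed minus product-expected fitness, is shown as quartiles across technical, biological and donor/recipient replicates.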

B. subtilis 168 [6] = assay: as above
Procedure, shortened: as §2

S. pneumoniae D39V [7] = assay: as above
Procedure, shortened: as §2

S. aureus Newman [8] = assay: as above
Procedure, shortened: as §2
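Throughout, for Bliss interaction score (quartile over a dose matrix): first quartile when negative (synergy) and third quartile when positive (antagonism).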

CCN(CC)CCOC(=O)c1ccc(N)cc1 [Procaine] + CN1C2=CC=CC=C2N=C3C1=CC=CC3=O [Pyocyanin]
fitness
Settings	first compound 85.5 µg/mL	first compound 171 µg/mL	first compound 342 µg/mL
B. subtilis 168 [2], partner 1.25 µg/mL	0.871	0.869	0.848
B. subtilis 168 [2], partner 2.5 µg/mL	0.846	0.863	0.748
B. subtilis 168 [2], partner 5 µg/mL	0.683	0.669	0.647
S. aureus DSM 20231 [1], partner 1.25 µg/mL	0.938	≥ 1	≥ 1
S. aureus DSM 20231 [1], partner 2.5 µg/mL	0.854	0.986	≥ 1
S. aureus DSM 20231 [1], partner 5 µg/mL	0.54	0.591	0.56
S. aureus Newman [4], partner 1.25 µg/mL	0.864	0.89	0.798
S. aureus Newman [4], partner 2.5 µg/mL	0.782	0.748	0.776
S. aureus Newman [4], partner 5 µg/mL	–	0.448	–
S. pneumoniae D39V [3], partner 0.325 µg/mL	≥ 1	0.998	0.991
S. pneumoniae D39V [3], partner 0.65 µg/mL	0.975	≥ 1	0.966

S. pneumoniae D39V [3], partner 1.3 µg/mL, one replicate
Settings	fitness
first compound 85.5 µg/mL	0.433
first compound 171 µg/mL	0.585
first compound 342 µg/mL	0.524

Settings	Bliss interaction score
B. subtilis 168 [6]	-0.0724
S. aureus DSM 20231 [5]	-0.0817
S. aureus Newman [8]	0.148
S. pneumoniae D39V [7]	-0.0685

CCN(CC)CCOC(=O)c1ccc(N)cc1 [Procaine] + CN(N=O)C(=O)N[C@@H](C=O)[C@@H](O)[C@H](O)[C@H](O)CO [Streptozotocin]
fitness
Settings	first compound 85.5 µg/mL	first compound 171 µg/mL	first compound 342 µg/mL
S. aureus DSM 20231 [1], partner 0.15 µg/mL	0.822	0.848	0.851
S. aureus DSM 20231 [1], partner 0.3 µg/mL	0.724	0.799	0.786
S. aureus DSM 20231 [1], partner 0.6 µg/mL	0.593	0.682	0.651
S. aureus Newman [4], partner 0.15 µg/mL	0.894	0.85	0.904
S. aureus Newman [4], partner 0.3 µg/mL	0.809	0.798	0.799
S. aureus Newman [4], partner 0.6 µg/mL	0.624	0.602	0.617
S. pneumoniae D39V [3], partner 1.2 µg/mL	0.977	0.994	0.963
S. pneumoniae D39V [3], partner 2.4 µg/mL	0.994	≥ 1	0.945
S. pneumoniae D39V [3], partner 4.8 µg/mL	0.993	≥ 1	0.961

fitness, B. subtilis 168 [2], one replicate
Settings	first compound 85.5 µg/mL	first compound 171 µg/mL	first compound 342 µg/mL
partner 0.15 µg/mL	0.98	0.945	0.891
partner 0.3 µg/mL	0.948	0.988	0.954
partner 0.6 µg/mL	0.901	0.944	0.881

Settings	Bliss interaction score
B. subtilis 168 [6]	0.0445
S. aureus DSM 20231 [5]	-0.076
S. aureus Newman [8]	0.0489
S. pneumoniae D39V [7]	0.0574

Reference: the supplement of paper PMC10627819
